Eleven compounds from patent publication US8389568B2, “IDO inhibitors and methods of use thereof” (Lankenau Institute for Medical Research, priority 2007, dated 2013) can be followed below.

Chain of human IDO (P14902 whole entry): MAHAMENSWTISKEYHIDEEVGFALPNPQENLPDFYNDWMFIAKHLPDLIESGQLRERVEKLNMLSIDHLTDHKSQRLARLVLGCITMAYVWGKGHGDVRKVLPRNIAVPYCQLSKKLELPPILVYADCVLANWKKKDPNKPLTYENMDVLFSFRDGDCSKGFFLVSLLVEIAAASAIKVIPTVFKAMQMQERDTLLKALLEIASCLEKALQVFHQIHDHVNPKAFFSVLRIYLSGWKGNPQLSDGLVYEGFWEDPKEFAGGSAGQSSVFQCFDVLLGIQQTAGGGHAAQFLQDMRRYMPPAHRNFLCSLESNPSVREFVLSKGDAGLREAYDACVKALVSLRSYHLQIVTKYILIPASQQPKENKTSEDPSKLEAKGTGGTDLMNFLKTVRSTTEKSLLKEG

One assay addresses human IDO (Homo sapiens, UniProt P14902). The assay is described as follows: IDO inhibition enzyme assay (N-formylkynurenine/kynurenine formation read at 490 nm). The assay is classed as biochemical.
Settings: not given
The protocol: Compounds of the instant invention were analyzed for inhibition of human IDO. The assay was conducted according to a literature protocol, with ascorbic acid and methylene blue serving the role of reductant (Littlejohn et al. (2000) Protein Expression and Purification, 19:22-29; Sono et al. (1989) J. Biol. Chem., 264:1616-1622). […] The enzyme assay monitored for formation of N-formylkynurenine by hydrolyzing the formyl group and spectrophotometrically analyzing for the conjugated imine generated from kynurenine and 4-(dimethylamino) benzaldehyde.
Specifically, the inhibition assays were performed in a 96-well microtiter plate as previously described with a small modification (Littlejohn et al. (2000) Prot. Expr. Purif., 19:22-29). Briefly, the reaction mixture contained 50 mM potassium phosphate buffer (pH 6.5), 40 mM ascorbic acid, 400 μg/ml catalase, 20 μM methylene blue and purified recombinant IDO(1) optimized based on its activity. The reaction mixture was added to the substrate, L-tryptophan (L-Trp), and the inhibitor. The L-Trp was serially diluted from 200 to 25 μM and the inhibitors were tested at two concentrations, 200 and 400 μM. The reaction was carried out at 37° C. for 60 minutes and stopped by adding 30% (w/v) trichloroacetic acid. The plate was heated at 65° C. for 15 minutes to convert formylkynurenine to kynurenine and then was spun at 6000 g for 5 minutes. Finally 100 μl supernatant from each well was transferred to a new 96 well plate and mixed with 2% (w/v) p-dimethylamino-benzaldehyde in acetic acid. The yellow color generated from the reaction with kynurenine was measured at 490 nm using a Synergy HT microtiter plate reader (Bio-Tek, Winooski, Vt.). The data was analyzed using Graph Pad Prism 4 software (Graph Pad Software Inc., San Diego, Calif.).
In general, IC50 refers to the concentration at which inhibition is half-maximal. As for `CC1(C)C=CC2=C(O1)C(=O)c1ccccc1C2=O` [Compound 8, 2,2-dimethyl-2H-benzo[g]chromene-5,10-dione], the IC50 came out at 155 nM.

The same assay, now with this note: purified recombinant IDO(1); L-Trp substrate; ascorbic acid/methylene blue reductant, catalase; pH 6.5; 37° C. for 60 minutes; read-out: IC50.
With `CC1(C)OC2=C(C(=O)c3ccccc3C2=O)[C@@H](O)[C@@H]1Br` (relative stereo) [Compound 27], the concentration for half-maximal inhibition (IC50) stood at 290 nM.

`C=CCN[C@H]1C2=C(OC(C)(C)[C@H]1O)C(=O)c1ccccc1C2=O` (stereo in doubt) [Compound 17, 4-(allylamino)-3-hydroxy-2,2-dimethyl-3,4-dihydro-2H-benzo[g]chromene-5,10-dione]: the half-maximal inhibitory concentration (IC50) came to 183 nM.

`CCCCN[C@H]1C2=C(OC(C)(C)[C@H]1O)C(=O)c1ccccc1C2=O` (stereo in doubt) [Compound 19, 4-(butylamino)-3-hydroxy-2,2-dimethyl-3,4-dihydro-2H-benzo[g]chromene-5,10-dione]: the 50% inhibitory concentration (IC50) came to 160 nM.

Take `CCCCN[C@H]1C2=C(OC(C)(C)[C@@H]1O)C(=O)c1ccccc1C2=O` (stereo in doubt) [Compound 20, 4-(butylamino)-3-hydroxy-2,2-dimethyl-3,4-dihydro-2H-benzo[g]chromene-5,10-dione]: the concentration for half-maximal inhibition (IC50) was found to be 70 nM.

On to `CO[C@H]1C2=C(OC(C)(C)[C@H]1O)C(=O)c1ccccc1C2=O` (stereo in doubt) [Compound 21, 3-hydroxy-4-methoxy-2,2-dimethyl-3,4-dihydro-2H-benzo[g]chromene-5,10-dione], for which the IC50 came to 976 nM.

For the compound `CO[C@H]1C2=C(OC(C)(C)[C@@H]1O)C(=O)c1ccccc1C2=O` (stereo in doubt) [Compound 22, 3-hydroxy-4-methoxy-2,2-dimethyl-3,4-dihydro-2H-benzo[g]chromene-5,10-dione], the 50% inhibitory concentration (IC50) was 3960 nM.

`CC1(C)OC2=C(C(=O)c3ccccc3C2=O)[C@H](O)[C@@H]1O` [Compound 12, (3S,4S)-3,4-dihydroxy-2,2-dimethyl-3,4-dihydro-2H benzo[g]chromene-5,10-dione]: the IC50 was determined as 1500 nM.

For `CC1(C)OC2=C(C(=O)c3ccccc3C2=O)C2OC21` (centres unmarked) [Compound 14, 2,2-dimethyl-9a,9b-dihydro-1aH-benzo[g]oxireno[2,3-c]chromene-4,9(2H,3aH)-dione], the IC50 worked out at 3300 nM.

Take `CC1(C)C=CC2=C(O1)C(=O)c1cccc(O)c1C2=O` [Compound 28, 6-hydroxy-2,2-dimethyl-2H-benzo[g]chromene-5,10-dione]: the IC50 was found to be 58 nM.

As for `COC(=O)C1(C)C=CC2=C(O1)C(=O)c1ccccc1C2=O` (centres unmarked) [Compound 29, methyl 2-methyl-5,10-dioxo-5,10-dihydro-2H-benzo[g]chromene-2-carboxylate], the IC50 is 161 nM.
